Results taken from PubChem BioAssay AID2060501 (Molecular Pharmacology Branch, DTP, NCI, 2025).

System: 282377-053-R-J1-PDC complex spheroids, viability
Test: Anticancer human tumor 282377-053-R-J1-PDC patient-derived colon adenocarcinoma cell line growth inhibition [GQUAD]
Conditions: for IC50: curve of first compound; for viability, T/C: stronger effect = lower value; active = viability on the fitted dose curve at most 10% of control; inactive = the rest
Method in brief: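 Tumor cells were grown as complex spheroids with HUVEC endothelial cells and mesenchymal stem cells as stroma. G-quadruplex stabilizers were combined with targeted agents over half-log dilutions from near the clinical Cmax, or from 10 microM.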

[1] = second compound 0.0316 µM, first compound 0.0316 µM
[2] = second compound 0.0316 µM, first compound 0.316 µM
[3] = second compound 0.1 µM, first compound 0.0316 µM
[4] = second compound 0.1 µM, first compound 0.316 µM
[5] = second compound 0.316 µM, first compound 0.0316 µM
[6] = second compound 0.316 µM, first compound 0.316 µM
[7] = second compound 1 µM, first compound 0.0316 µM
[8] = second compound 1 µM, first compound 0.316 µM
[9] = second compound 3.16 µM, first compound 0.0316 µM
[10] = second compound 3.16 µM, first compound 0.316 µM
[11] = second compound 10 µM, first compound 0.0316 µM
[12] = second compound 10 µM, first compound 0.316 µM
[13] = second compound 0.0316 µM, first compound 0.1 µM
[14] = second compound 0.0316 µM, first compound 1 µM
[15] = second compound 0.0316 µM, first compound 3.16 µM
[16] = second compound 0.0316 µM, first compound 10 µM
[17] = second compound 0.1 µM, first compound 0.1 µM
[18] = second compound 0.1 µM, first compound 1 µM
[19] = second compound 0.1 µM, first compound 3.16 µM
[20] = second compound 0.1 µM, first compound 10 µM
[21] = second compound 0.316 µM, first compound 0.1 µM
[22] = second compound 0.316 µM, first compound 1 µM
[23] = second compound 0.316 µM, first compound 3.16 µM
[24] = second compound 0.316 µM, first compound 10 µM
[25] = second compound 1 µM, first compound 0.1 µM
[26] = second compound 1 µM, first compound 1 µM
[27] = second compound 1 µM, first compound 3.16 µM
[28] = second compound 1 µM, first compound 10 µM
[29] = second compound 3.16 µM, first compound 0.1 µM
[30] = second compound 3.16 µM, first compound 1 µM
[31] = second compound 3.16 µM, first compound 3.16 µM
[32] = second compound 3.16 µM, first compound 10 µM
[33] = second compound 10 µM, first compound 0.1 µM
[34] = second compound 10 µM, first compound 1 µM
[35] = second compound 10 µM, first compound 3.16 µM
[36] = second compound 10 µM, first compound 10 µM
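Also: spheroids exposed to compounds for 7 days before readout.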
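For viability, T/C in this document: percent of vehicle DMSO control viability with 100% = untreated-like growth.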

CC[C@@]1(O)C(=O)OCc2c1cc1n(c2=O)Cc2cc3c(CN(C)C)c(O)ccc3nc2-1 + Cc1cnc(CNC(=O)c2c(=O)c3ccc(N4CCCN(C)CC4)nc3n3c2sc2ccccc23)cn1
0.0108 µM: IC50 (second compound 3.16 µM)
inactive: viability, T/C (second compound 0.0316 µM, first compound 0.000999 µM) 136% | viability, T/C (second compound 0.0316 µM, first compound 0.00316 µM) 115% | viability, T/C (second compound 0.0316 µM, first compound 0.00999 µM) 125% | viability, T/C [1] 107% | viability, T/C (second compound 0.0316 µM, first compound 0.0999 µM) 79.7% | viability, T/C [2] 66.7% | viability, T/C (second compound 0.1 µM, first compound 0.000999 µM) 110% | viability, T/C (second compound 0.1 µM, first compound 0.00316 µM) 116% | viability, T/C (second compound 0.1 µM, first compound 0.00999 µM) 89.5% | viability, T/C [3] 90.9% | viability, T/C (second compound 0.1 µM, first compound 0.0999 µM) 84.2% | viability, T/C [4] 73.1% | viability, T/C (second compound 0.316 µM, first compound 0.000999 µM) 96.3% | viability, T/C (second compound 0.316 µM, first compound 0.00316 µM) 87.3% | viability, T/C (second compound 0.316 µM, first compound 0.00999 µM) 86.4% | viability, T/C [5] 88.6% | viability, T/C (second compound 0.316 µM, first compound 0.0999 µM) 71% | viability, T/C [6] 57.7% | viability, T/C (second compound 1 µM, first compound 0.000999 µM) 72.4% | viability, T/C (second compound 1 µM, first compound 0.00316 µM) 66.6% | viability, T/C (second compound 1 µM, first compound 0.00999 µM) 58.3% | viability, T/C [7] 50.9% | viability, T/C (second compound 1 µM, first compound 0.0999 µM) 53.1% | viability, T/C [8] 47.5% | viability, T/C (second compound 3.16 µM, first compound 0.000999 µM) 54.1% | viability, T/C (second compound 3.16 µM, first compound 0.00316 µM) 56.6% | viability, T/C (second compound 3.16 µM, first compound 0.00999 µM) 50.1% | viability, T/C [9] 41.8% | viability, T/C (second compound 3.16 µM, first compound 0.0999 µM) 51.3% | viability, T/C [10] 47.3% | viability, T/C (second compound 10 µM, first compound 0.000999 µM) 46.1% | viability, T/C (second compound 10 µM, first compound 0.00316 µM) 50.2% | viability, T/C (second compound 10 µM, first compound 0.00999 µM) 49.8% | viability, T/C [11] 49.2% | viability, T/C (second compound 10 µM, first compound 0.0999 µM) 43.3% | viability, T/C [12] 48.6%
< 0.000999 µM: IC50 (second compound 10 µM)
0.115 µM: IC50 (second compound 1 µM)
> 0.316 µM: IC50 (second compound 0.0316 µM) | IC50 (second compound 0.1 µM) | IC50 (second compound 0.316 µM)

CC(C)n1c(=O)n(C)c2cnc3cc(F)c(-c4ccc(OCCCN5CCCCC5)nc4)cc3c21 + Cc1[nH]c2ccc(F)cc2c1-c1nc2c3cccnc3c3ncccc3c2[nH]1
0.0435 µM: IC50 (second compound 10 µM)
6.16 µM: IC50 (second compound 3.16 µM)
> 10 µM: IC50 (second compound 0.0316 µM) | IC50 (second compound 0.1 µM) | IC50 (second compound 0.316 µM) | IC50 (second compound 1 µM)
inactive: viability, T/C [1] 123% | viability, T/C [13] 91.5% | viability, T/C [2] 123% | viability, T/C [14] 104% | viability, T/C [15] 101% | viability, T/C [16] 94.1% | viability, T/C [3] 101% | viability, T/C [17] 118% | viability, T/C [4] 94.2% | viability, T/C [18] 88.6% | viability, T/C [19] 118% | viability, T/C [20] 92.6% | viability, T/C [5] 132% | viability, T/C [21] 115% | viability, T/C [6] 100% | viability, T/C [22] 112% | viability, T/C [23] 108% | viability, T/C [24] 91.5% | viability, T/C [7] 106% | viability, T/C [25] 116% | viability, T/C [8] 107% | viability, T/C [26] 112% | viability, T/C [27] 98.4% | viability, T/C [28] 93% | viability, T/C [9] 89% | viability, T/C [29] 78.8% | viability, T/C [10] 86.7% | viability, T/C [30] 66.3% | viability, T/C [31] 73.6% | viability, T/C [32] 36.5% | viability, T/C [11] 53% | viability, T/C [33] 40.7% | viability, T/C [12] 44.3% | viability, T/C [34] 29.6% | viability, T/C [35] 23.9% | viability, T/C [36] 19%

CCCS(=O)(=O)Nc1ccc(F)c(C(=O)c2c[nH]c3ncc(-c4ccc(Cl)cc4)cc23)c1F + CN(C)c1ccc(Nc2c3ccc(NC(=O)CCN4CCCC4)cc3nc3cc(NC(=O)CCN4CCCC4)ccc23)cc1
3.49 µM: IC50 (second compound 0.1 µM)
2.96 µM: IC50 (second compound 0.316 µM)
3.87 µM: IC50 (second compound 1 µM)
4.49 µM: IC50 (second compound 0.0316 µM)
3.74 µM: IC50 (second compound 10 µM)
inactive: viability, T/C [1] 81% | viability, T/C [13] 66% | viability, T/C [2] 58% | viability, T/C [14] 69.9% | viability, T/C [15] 64.5% | viability, T/C [16] 16.9% | viability, T/C [3] 68.1% | viability, T/C [17] 56% | viability, T/C [4] 59.3% | viability, T/C [18] 61.4% | viability, T/C [19] 52.8% | viability, T/C [20] 19.4% | viability, T/C [5] 74.8% | viability, T/C [21] 65.7% | viability, T/C [6] 74.7% | viability, T/C [22] 49.3% | viability, T/C [23] 57.2% | viability, T/C [24] 15.6% | viability, T/C [7] 79.8% | viability, T/C [25] 60.9% | viability, T/C [8] 89.3% | viability, T/C [26] 57.6% | viability, T/C [27] 59.2% | viability, T/C [28] 23.6% | viability, T/C [9] 73.3% | viability, T/C [29] 72.5% | viability, T/C [10] 68.7% | viability, T/C [30] 67.1% | viability, T/C [31] 50.6% | viability, T/C [32] 21.6% | viability, T/C [11] 82.1% | viability, T/C [33] 70.6% | viability, T/C [12] 75.6% | viability, T/C [34] 52.3% | viability, T/C [35] 65% | viability, T/C [36] 14.2%
3.32 µM: IC50 (second compound 3.16 µM)
